Assay results from the supplement of paper PMC11061612.

Experiments:
Test in all cases: combination Emax (second highest fraction inhibited in the dose matrix, 72 h); higher = more inhibition; extreme values may be limits of the assay
[1] = test system: CL-11 (Colorectal Carcinoma)
Outline: (§1)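 Bliss excess equals the observed combination effect minus the expected value EA + EB − EA·EB, where EA and EB are the effects of each agent alone. Combination Emax is the second-highest inhibition within the matrix. Inhibition was scaled from CellTiter-Glo 2.0 luminescence, with 0 set by vehicle wells and 1 by blank wells, after 72 hours of two-drug dosing of cells plated in 1536-well plates.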

[2] = test system: Raji (Burkitt's Lymphoma)
Outline: as §1

[3] = test system: COR-L88 (Small Cell Lung Carcinoma)
Outline: as §1

[4] = test system: LS-1034 (Colorectal Carcinoma)
Outline: as §1

[5] = test system: P32-ISH (Burkitt's Lymphoma)
Outline: as §1

KALS-1 (Glioblastoma) = test system: KALS-1 (Glioblastoma)
Outline: as §1

IST-MEL1 (Melanoma) = test system: IST-MEL1 (Melanoma)
Outline: as §1

[6] = test system: SUP-M2 (T-Cell Non-Hodgkin's Lymphoma)
Outline: as §1

[7] = test system: TUR (Acute Myeloid Leukemia)
Outline: as §1

[8] = test system: MM1S (Plasma Cell Myeloma)
Outline: as §1

T47D (Breast Carcinoma) = test system: T47D (Breast Carcinoma)
Outline: as §1

[9] = test system: MS-1 (Small Cell Lung Carcinoma)
Outline: as §1

UACC-257 (Melanoma) = test system: UACC-257 (Melanoma)
Outline: as §1

[10] = test system: NCI-H3118 (Head and Neck Carcinoma)
Outline: as §1

[11] = test system: RCC-JW (Kidney Carcinoma)
Outline: as §1

[12] = test system: PL4 (Pancreatic Carcinoma)
Outline: as §1

[13] = test system: SNU-C2B (Colorectal Carcinoma)
Outline: as §1

[14] = test system: SiHa (Cervical Carcinoma)
Outline: as §1

[15] = test system: OAW-28 (Ovarian Carcinoma)
Outline: as §1

AM-38 (Glioblastoma) = test system: AM-38 (Glioblastoma)
Outline: as §1

Compound	combination Emax [1]	combination Emax [2]	combination Emax [3]	combination Emax [4]	combination Emax [5]	combination Emax (KALS-1 (Glioblastoma))	combination Emax (IST-MEL1 (Melanoma))	combination Emax [6]	combination Emax [7]	combination Emax [8]	combination Emax (T47D (Breast Carcinoma))	combination Emax [9]	combination Emax (UACC-257 (Melanoma))	combination Emax [10]	combination Emax [11]	combination Emax [12]	combination Emax [13]	combination Emax [14]	combination Emax [15]	combination Emax (AM-38 (Glioblastoma))
Cc1c2c(nn1C)CSCc1cc(n(C)n1)CSc1cc(c3ccccc3c1)OCCCc1c(C(=O)O)n(C)c3c-2c(Cl)ccc13 [AZD5991] + Cn1cnc2c(F)c(Nc3ccc(Br)cc3Cl)c(C(=O)NOCCO)cc21 [Selumetinib] (first compound max 1 µM, 7x7, partner max 3 µM)	0.525	0.756	0.17	0.587	1	0.24	0.395	1	0.629	0.998	0.364	0.375	0.817	0.481	0.228	0.573	0.356	0.305	0.352	0.709
C[C@@H]1COCCN1c1cc(C2([S@](C)(=N)=O)CC2)nc(-c2ccnc3[nH]ccc23)n1 [AZD6738] + O=C(c1cc(Cc2n[nH]c(=O)c3ccccc23)ccc1F)N1CCN(C(=O)C2CC2)CC1 [Olaparib] (first compound max 10 µM, 7x7, partner max 10 µM)	0.758	0.855	0.342	0.56	0.91	0.793	0.726	1	0.907	0.642	0.301	0.742	0.142	0.64	0.552	0.672	0.69	0.228	0.396	0.747
Cc1cc2ncnn2cc1Nc1ncc2c(n1)n(C1CCOCC1)c(=O)n2C [AZD7648] + C=CCn1c(=O)c2cnc(Nc3ccc(N4CCN(C)CC4)cc3)nc2n1-c1cccc(C(C)(C)O)n1 [AZD1775] (first compound max 10 µM, partner max 1 µM)	0.638	0.755	0.545	0.379	1	0.846	0.577	0.991	0.736	0.811	0.468	0.827	0.226	0.897	0.413	0.379	0.551	0.308	0.401	0.343
Cc1cc2ncnn2cc1Nc1ncc2c(n1)n(C1CCOCC1)c(=O)n2C [AZD7648] + CCN(CCO)CCCOc1ccc2c(Nc3cc(CC(=O)Nc4cccc(F)c4)[nH]n3)ncnc2c1 [AZD2811] (first compound max 10 µM, 7x7, partner max 1 µM)	0.276	0.19	0.244	0.264	0.935	0.386	0.457	0.932	0.284	0.346	0.456	0.342	0.278	0.239	0.447	0.142	0.224	0.335	0.217	0.405
Cc1cc2ncnn2cc1Nc1ncc2c(n1)n(C1CCOCC1)c(=O)n2C [AZD7648] + CN(C)CCCOc1ccc(-c2ccc3ncc4c(c3c2)n(C2CCOCC2)c(=O)n4C)cn1 [AZD0156] (first compound max 10 µM, 7x7, partner max 1 µM)	0.255	0.227	0.237	0.239	0.214	0.346	0.275	0.183	0.164	0.389	0.501	0.309	0.186	0.215	0.339	0.0509	0.311	0.305	0.187	0.417
Cc1cc2ncnn2cc1Nc1ncc2c(n1)n(C1CCOCC1)c(=O)n2C [AZD7648] + C[C@@H]1COCCN1C2=NC(=NC(=C2)C3(CC3)[S@](=N)(=O)C)C4=C5C=CNC5=NC=C4 [AZD6738] (first compound max 10 µM, 7x7, partner max 10 µM)	0.767	0.779	0.713	0.696	0.938	0.866	0.777	0.992	0.907	0.592	0.464	0.728	0.15	0.647	0.568	0.631	0.63	0.32	0.42	0.758
Cc1cc2ncnn2cc1Nc1ncc2c(n1)n(C1CCOCC1)c(=O)n2C [AZD7648] + O=C(c1cc(Cc2n[nH]c(=O)c3ccccc23)ccc1F)N1CCN(C(=O)C2CC2)CC1 [Olaparib] (first compound max 10 µM, 7x7, partner max 10 µM)	0.144	0.396	0.231	0.0469	0.207	0.18	0.24	0.831	0.114	0.339	0.313	0.399	0.0535	0.167	0.198	0.28	0.28	0.143	0.188	0.616
NC1(C(=O)N[C@@H](CCO)c2ccc(Cl)cc2)CCN(c2ncnc3[nH]ccc23)CC1 [Capivasertib] + CC(=O)c1c(C)c2cnc(Nc3ccc(N4CCNCC4)cn3)nc2n(C2CCCC2)c1=O [Palbociclib] (first compound max 10 µM, 7x7, partner max 10 µM)	0.358	0.491	0.226	0.499	0.774	0.398	0.48	0.89	0.876	0.981	0.434	0.266	0.276	0.519	0.449	0.478	0.424	0.252	0.191	0.473
NC1(C(=O)N[C@@H](CCO)c2ccc(Cl)cc2)CCN(c2ncnc3[nH]ccc23)CC1 [Capivasertib] + CC(C)n1c(=O)n(C)c2cnc3cc(F)c(-c4ccc(OCCCN5CCCCC5)nc4)cc3c21 [AZD1390] (first compound max 10 µM, 7x7, partner max 0.3 µM)	0.223	0.185	0.0851	0.322	0.557	0.41	0.359	0.19	0.809	0.999	0.37	0.307	0.26	0.247	0.387	0.24	0.303	0.241	0.119	0.17
NC1(C(=O)N[C@@H](CCO)c2ccc(Cl)cc2)CCN(c2ncnc3[nH]ccc23)CC1 [Capivasertib] + CCN(CCO)CCCOc1ccc2c(Nc3cc(CC(=O)Nc4cccc(F)c4)[nH]n3)ncnc2c1 [AZD2811] (first compound max 10 µM, 7x7, partner max 1 µM)	0.272	0.293	0.253	0.302	0.951	0.495	0.459	0.992	0.912	0.998	0.456	0.386	0.394	0.241	0.358	0.393	0.329	0.299	0.249	0.285
NC1(C(=O)N[C@@H](CCO)c2ccc(Cl)cc2)CCN(c2ncnc3[nH]ccc23)CC1 [Capivasertib] + COc1nnc2ccc(N3CCC(c4ccc(OCCN5CCN(C)C(=O)[C@H]5C)cc4)CC3)nn12 [AZD5153] (first compound max 10 µM, 7x7, partner max 1 µM)	0.688	0.646	0.496	0.499	1	0.682	0.451	0.915	1	1	0.477	0.931	0.355	0.537	0.601	0.613	0.54	0.644	0.493	0.448
NC1(C(=O)N[C@@H](CCO)c2ccc(Cl)cc2)CCN(c2ncnc3[nH]ccc23)CC1 [Capivasertib] + C[C@@H]1COCCN1C2=NC(=NC(=C2)C3(CC3)[S@](=N)(=O)C)C4=C5C=CNC5=NC=C4 [AZD6738] (first compound max 10 µM, 7x7, partner max 10 µM)	0.718	0.724	0.435	0.746	0.927	0.784	0.785	1	0.962	0.99	0.481	0.747	0.389	0.603	0.635	0.777	0.647	0.413	0.515	0.7
NC1(C(=O)N[C@@H](CCO)c2ccc(Cl)cc2)CCN(c2ncnc3[nH]ccc23)CC1 [Capivasertib] + Cn1cnc2c(F)c(Nc3ccc(Br)cc3Cl)c(C(=O)NOCCO)cc21 [Selumetinib] (first compound max 10 µM, 7x7, partner max 10 µM)	0.8	0.192	0.257	0.657	0.489	0.61	0.584	0.507	0.924	1	0.42	0.267	0.731	0.657	0.369	0.726	0.388	0.233	0.268	0.675
